Reference: publication PMC6429507, “Triterpene-Based Carboxamides Act as Good Inhibitors of Butyrylcholinesterase” (Molecules, 2019)
Like-named read-outs stand apart in the source and are kept apart here.

Assays:
[1] = molecular target: acetylcholinesterase (AChE, electric eel) (Electrophorus electricus, UniProt O42275); details: mean ± SE
Excerpt: (§1) In this study, carboxamides with different triterpenoic backbones (ursolic, oleanolic, maslinic, betulinic, and platanic acids), and various amine residues (Scheme 1), were investigated.
(§2) A TECAN SpectraFluorPlus working in the kinetic mode and measuring the absorbance at λ = 415 nm was used for the enzymatic studies. Acetylcholinesterase (from Electrophorus electricus), 5,5′-dithiobis-(2-nitrobenzoic acid) (DTNB) and acetylthiocholine iodide were purchased from Sigma. Butyrylcholinesterase (from equine serum) was purchased from Fluka. Preparation of the solutions, assay procedure, as well as molecular modeling conditions can be found in the Supplementary Materials.
(§3) 3.1 Preparation of the solutions
(§4) Preparation of 50 mM Tris-HCl buffer solutions: Tris(hydroxymethyl)-aminomethane (606 mg) was dissolved in bidestilled water (100 mL) and adjusted with HCl to a pH of 8.0 ± 0.1. Buffers were freshly prepared and stored in the refrigerator. AChE solution 2.005 U/mL: the enzyme (271 U/mg, 0.037 mg) was dissolved in freshly prepared buffer pH 8.0 (5 mL) containing NaN3 (0.98 mg). BChE solution 2.040 U/mL: the enzyme (7.54 U/mg, 1.353 mg) was dissolved in freshly prepared buffer pH 8.0 (5 mL) containing NaN3 (0.98 mg). DTNB solution 3 mM: DTNB (23.8 mg) was dissolved in freshly prepared buffer pH 8.0 (20 mL) containing NaCl (116.8 mg) and MgCl2 (38.0 mg). ATChI solution 15 mM:
(§5) ATChI (43.4 mg) was dissolved in bidestilled water (10 mL). All solutions were stored in Eppendorf caps in the refrigerator or in the freezer, if necessary. The pure compounds were […]
(§6) dissolved in bidistilled water. The final concentrations for the enzymatic assay were obtained by diluting the stock solution with bidistilled water.
(§7) A mixture of the DTNB solution (125 µL), enzyme solution (25 µL) and compounds solutions (25 µL, 3 different concentrations and once blank water) was prepared and incubated at 30 °C for 20 min. The substrate (25 µL, 4 different concentrations) was added to start the enzymatic reaction. The absorbance data (l = 415 nm) was recorded under a controlled temperature of 30 °C for 30 min at 1 min intervals. The substrate concentrations in the test were as follows: […]
(§8) determined as the quotient of the slopes (compound divided by blank) of the linear ranges.
(§9) The used substrate concentration was 0.625 mM. The absorbance data was recorded under a controlled temperature of 30 °C for 10 min.

[2] = molecular target: T1, butyrylcholinesterase (BChE, equine serum) (Equus caballus, UniProt P81908); assay: Ellman's assay, butyrylcholinesterase inhibition; format: biochemical; details: for Type of Inhibition / Ki′ (uncompetitive inhibition) / Ki: BChE, equine serum; for Ki′ (uncompetitive inhibition) / Ki: Ellman's assay; for Ki: read-out: Ki (competitive inhibition); for Grade of inhibition in% BChE: mean ± SE
T1 construct: Butyrylcholinesterase (from equine serum) was purchased from Fluka; purchased Fluka; host or cells: equine serum
Excerpt: as §1, §2, §3, §4, §5, §6, §7, §8, §9

T1 sequence (P81908 whole entry): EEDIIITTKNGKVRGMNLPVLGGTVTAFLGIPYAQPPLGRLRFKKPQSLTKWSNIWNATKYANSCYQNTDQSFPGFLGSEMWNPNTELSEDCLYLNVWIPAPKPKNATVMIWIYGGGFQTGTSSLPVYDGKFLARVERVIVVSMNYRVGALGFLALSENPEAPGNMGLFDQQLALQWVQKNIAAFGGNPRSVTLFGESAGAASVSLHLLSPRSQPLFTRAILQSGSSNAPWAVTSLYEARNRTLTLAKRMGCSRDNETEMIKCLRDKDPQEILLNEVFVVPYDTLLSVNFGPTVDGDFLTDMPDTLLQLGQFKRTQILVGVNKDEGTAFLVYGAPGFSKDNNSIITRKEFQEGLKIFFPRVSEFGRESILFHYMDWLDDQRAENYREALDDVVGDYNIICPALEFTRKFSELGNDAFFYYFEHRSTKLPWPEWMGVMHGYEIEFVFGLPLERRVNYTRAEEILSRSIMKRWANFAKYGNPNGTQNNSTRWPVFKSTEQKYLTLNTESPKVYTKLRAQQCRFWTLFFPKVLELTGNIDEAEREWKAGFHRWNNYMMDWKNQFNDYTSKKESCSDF
Sequence of acetylcholinesterase (AChE, electric eel) (O42275 24-633): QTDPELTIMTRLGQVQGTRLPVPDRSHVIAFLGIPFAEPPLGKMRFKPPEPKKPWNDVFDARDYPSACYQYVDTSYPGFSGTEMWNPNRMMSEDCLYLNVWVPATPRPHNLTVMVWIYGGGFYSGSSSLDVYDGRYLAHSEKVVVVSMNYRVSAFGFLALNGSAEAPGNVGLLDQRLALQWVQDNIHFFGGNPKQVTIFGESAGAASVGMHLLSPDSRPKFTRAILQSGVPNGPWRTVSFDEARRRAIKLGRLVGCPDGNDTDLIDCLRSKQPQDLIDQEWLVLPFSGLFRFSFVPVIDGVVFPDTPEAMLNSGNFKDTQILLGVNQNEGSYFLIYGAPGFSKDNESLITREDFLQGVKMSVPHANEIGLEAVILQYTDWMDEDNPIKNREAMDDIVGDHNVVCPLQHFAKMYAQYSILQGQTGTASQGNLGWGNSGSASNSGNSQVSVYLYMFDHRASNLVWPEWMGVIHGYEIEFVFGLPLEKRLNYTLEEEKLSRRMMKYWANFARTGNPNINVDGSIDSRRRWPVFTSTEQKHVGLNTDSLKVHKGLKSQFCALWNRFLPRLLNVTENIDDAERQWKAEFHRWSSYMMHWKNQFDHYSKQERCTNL

| Structure (SMILES) | Grade of inhibition in% AChE ([1]; c = 10 µM) | Type of Inhibition [2] | Ki′ (uncompetitive inhibition) [2] | Ki [2] | Grade of inhibition in% BChE ([2]; c = 10 µM) | Grade of inhibition in% AChE ([1]; c = 30 µM) | Grade of inhibition in% BChE ([2]; c = 30 µM) | selectivity F (percent inhibition for AChE divided by percent inhibition for BChE) ([2]; towards BChE) |
| --- | --- | --- | --- | --- | --- | --- | --- | --- |
| CC1(C)CCC2(C(=O)NCCN3CCCC3)CCC3(C)C(=CCC4C5(C)CCC(O)C(C)(C)C5CCC43C)C2C1 (stereo not drawn) [Compound 37, (3β)-N-(2-Pyrrolidin-1-ylethyl)-3-hydroxy-olean-12-en-28-amide] | 10.04 ± 1.70% | mixed-type | > 50000 nM | 550 ± 20 nM | 74.50 ± 0.93% |  |  |  |
| CC(=O)O[C@H]1CC[C@@]2(C)C(CC[C@]3(C)C2CC=C2C4[C@@H](C)[C@H](C)CC[C@]4(C(=O)NCCN(C)C)CC[C@]23C)C1(C)C (stereo partly shown) [Compound 21] | 10.78 ± 0.12% | mixed-type | 143360 ± 20 nM | 6480 ± 100 nM | 36.50 ± 0.30% |  |  |  |
| CC(=O)OC1CC2(C)C(CCC3(C)C2CC=C2C4CC(C)(C)CCC4(C(=O)NCCN4CCCC4)CCC23C)C(C)(C)C1OC(C)=O (stereo not drawn) [Compound 33, (2α,3β)-N-(2-Pyrrolidin-1-ylethyl)-2,3-diacetyloxy-olean-12-en-28-amide] |  |  |  |  |  | 23.47 ± 4.59% | 33.01 ± 2.91% |  |
| CC(=O)O[C@H]1CC[C@]2(C)[C@H]3CC=C4[C@@H]5CC(C)(C)CC[C@]5(C(=O)NCCN5CCCC5)CC[C@@]4(C)[C@]3(C)CC[C@H]2C1(C)C [Compound 32, (3β)-N-(2-Pyrrolidin-1-ylethyl)-3-acetyloxy-olean-12-en-28-amide] | 7.29 ± 0.50% | mixed-type | 29880 ± 1130 nM | 2020 ± 560 nM | 65.73 ± 0.14% |  |  | 0.11 |
| C=C(C)C1CC[C@]2(C(=O)NCCN(C)C)CC[C@]3(C)C(CCC4[C@@]5(C)CC[C@H](OC(C)=O)C(C)(C)C5CC[C@]43C)C12 (stereo partly shown) [Compound 24] | 13.10 ± 1.32% | mixed-type |  |  | 67.75 ± 0.69% |  |  |  |
| C[C@@H]1CC[C@]2(C(=O)NCCN(C)C)CC[C@]3(C)C(=CCC4[C@@]5(C)CC[C@H](O)C(C)(C)C5CC[C@]43C)C2[C@H]1C (stereo partly shown) [Compound 26] |  | mixed-type | 3100 ± 300 nM | 1110 ± 90 nM |  | 33.53 ± 0.44% | 77.74 ± 0.59% |  |
| CC1(C)CCC2(C(=O)NCCN3CCCCC3)CCC3(C)C(=CCC4C5(C)CC(O)C(O)C(C)(C)C5CCC43C)C2C1 (stereo not drawn) [Compound 48, (2α,3β)-N-(2-Piperidin-1-ylethyl)-2,3-dihydroxy-olean-12-en-28-amide] | 9.32 ± 0.29% | mixed-type | 6210 ± 470 nM | 2260 ± 50 nM | 69.30 ± 1.12% |  |  |  |
| CC(=O)O[C@H]1CC[C@]2(C)[C@H]3CC[C@@H]4[C@H]5[C@H](C(C)=O)CC[C@]5(C(=O)NCCN5CCCCC5)CC[C@@]4(C)[C@]3(C)CC[C@H]2C1(C)C [Compound 45, (3β)-N-(2-Piperidin-1-ylethyl)-3-acetyloxy-20-oxo-30-norlupan-28-amide] | no inhibition | mixed-type | 4880 ± 210 nM | 710 ± 40 nM | 83.44 ± 1.00% |  |  |  |
| CC1(C)CC[C@]2(C(=O)NCCN3CCCCC3)CC[C@]3(C)C(=CC[C@@H]4[C@@]5(C)CC[C@H](O)C(C)(C)[C@@H]5CC[C@]43C)[C@@H]2C1 [Compound 47, (3β)-N-(2-Piperidin-1-ylethyl)-3-hydroxy-olean-12-en-28-amide] |  | mixed-type | 10420 ± 1360 nM | 1570 ± 10 nM |  | 38.65 ± 0.29% | 74.89 ± 0.04% |  |
| C=C(C)C1CC[C@]2(C(=O)NCCN)CC[C@]3(C)C(CCC4[C@@]5(C)CC[C@H](O)C(C)(C)C5CC[C@]43C)C12 (stereo partly shown) [Compound 19] | 62.95 ± 0.61% |  |  |  | 36.70 ± 5.34% |  |  |  |
